Columns and labels:
[1] = molecular target: T1, Plasma Kallikrein (Homo sapiens, UniProt P03952); test: Plasma kallikrein protease inhibition assay, purified enzyme; type: biochemical; parameters: NS0-derived Gly20-Ala638, with a C-terminal 60-His tag; 60-His (so in the source) (C); purchased R&D Systems 2497-SE; host or cells: Mouse myeloma cell line, NS0; settings: 10 μM Z-FR-AMC substrate, 20-minute pre-incubation, pH 8.0/8.5, room temperature, read-out: Purified PKal IC50
Protocol: (§1) Plasma kallikrein protease inhibition assay. Two methods for determining the IC50 of a test compound against Plasma Kallikrein are provided.
In the first method was used a reaction buffer composed of 25 mM Tris-HCl (pH 8.0), 100 mM NaCl (pH 8.5), 0.01% Brij35, and 1% DMSO (final). The enzyme used was Plasma Kallikrein (R&D Systems Cat #2497-SE; Recombinant Human Plasma Kallikrein, expressed in Mouse myeloma cell line, NS0-derived Gly20-Ala638, with a C-terminal 60-His tag. MW=70 kDa).
The enzyme was activated by dilution to 200 μg/mL in activation buffer (100 mM Tris, 10 mM CaCl2, 150 mM NaCl, pH 7.5 (TCN), and then combined with an equal volume of 20 μg/mL thermolysin to form a reaction buffer. Each test compound was then dissolved in DMSO and delivered into the reaction buffer. The reaction was initiated by delivering a substrate solution containing 10 μM Z-FR-AMC (Enzo Cat #P-139; AMC: 7-Amino-4-methylcoumarin) into the reaction well after a 20-minute pre-incubation period.
Measurement was conducted with En Vision (PE) with excitation and emission wavelengths of 355 nm and 460 nm, respectively. […]. The enzyme activities were monitored every 5 minutes as a time-course measurement of the increase in signal from fluorescently labeled peptide substrate for 120 minutes at room temperature.
Data was analyzed by taking slope*(signal/time) of the linear portion of measurements. Slope was calculated using Excel, and curve fits were performed using Prism software.

[2] = molecular target: T1, Plasma Kallikrein; test: Plasma kallikrein activity in pooled human plasma; type: biochemical; parameters: Plasma Kallikrein activity was also measured in pooled human plasma; from tissue; host or cells: pooled human plasma; settings: Z-FR-AMC substrate, activated with 10% Actin FS solution, 10 minutes, read-out: Pooled Human Plasma PKal IC50
Protocol: as §1
Second, Plasma Kallikrein activity was also measured in pooled human plasma. First, a 10% Actin FS solution was prepared in assay buffer. Each test compound was dissolved in DMSO and delivered to the reaction mixture along with Z-FR-AMC substrate and pooled human plasma. The multi-well reaction plate was incubated for five minutes at room temperature. To initiate the reaction, the 10% Actin FS solution was added to each well, and kinetic measurements were taken at Ex/Em at 355/460 nm. The fluorescence signal was recorded every 30 seconds for a total of 10 minutes.

T1 sequence (P03952 391-638 limits assumed): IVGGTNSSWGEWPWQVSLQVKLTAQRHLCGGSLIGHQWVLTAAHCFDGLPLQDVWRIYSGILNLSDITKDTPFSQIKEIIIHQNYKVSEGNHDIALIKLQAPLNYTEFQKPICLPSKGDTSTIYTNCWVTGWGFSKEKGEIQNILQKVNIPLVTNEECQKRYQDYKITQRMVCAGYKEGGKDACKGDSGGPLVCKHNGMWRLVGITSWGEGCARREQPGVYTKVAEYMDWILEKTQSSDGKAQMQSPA
T1 sequence (P03952 20-390 partner limits assumed): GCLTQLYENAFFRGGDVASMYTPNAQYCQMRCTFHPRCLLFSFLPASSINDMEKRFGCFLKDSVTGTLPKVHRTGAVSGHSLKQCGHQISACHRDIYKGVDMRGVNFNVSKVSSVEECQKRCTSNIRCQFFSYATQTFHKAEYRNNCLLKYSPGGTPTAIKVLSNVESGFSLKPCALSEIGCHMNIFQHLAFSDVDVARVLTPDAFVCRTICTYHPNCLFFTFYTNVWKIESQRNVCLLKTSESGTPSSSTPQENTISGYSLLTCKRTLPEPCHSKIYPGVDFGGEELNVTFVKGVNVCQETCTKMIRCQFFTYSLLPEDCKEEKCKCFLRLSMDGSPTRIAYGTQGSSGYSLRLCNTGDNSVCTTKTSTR

IC50 [1] [nM] | IC50 [2] [nM] | SMILES
1 to 10 | – | N#CCc1ccc(Cc2cc(C(=O)NCc3ccc(C(=N)N)cc3)sn2)cc1 [Example 11]
10 to 100 | < 100 | COCc1c(C(=O)NCc2ccc(C(=N)N)cc2)cnn1Cc1ccc(C(C)(C)C#N)cc1 [Example 82, N-(4-carbamimidoylbenzyl)-1-(4-(2-cyanopropan-2-yl)benzyl)-5-(methoxymethyl)-1H-pyrazole-4-carboxamide]
10 to 100 | 100 to 1000 | CC(C)(C#N)c1ccc(Cn2ncc(C(=O)NCc3ccc(C(=N)N)cc3)c2C2CC2)cc1 [Example 83, N-(4-carbamimidoylbenzyl)-1-(4-(2-cyanopropan-2-yl)benzyl)-5-cyclopropyl-1H-pyrazole-4-carboxamide]
< 1 | < 100 | N#Cc1ccc(-c2ccc(Cn3cc(C(=O)NCc4ccc(C(=N)N)cc4)cn3)cc2)cc1 [Example 13, N-(4-carbamimidoylbenzyl)-1-((4′-cyano-[1,1′-biphenyl]-4-yl)methyl)-1H-pyrazole-4-carboxamide]
1 to 10 | < 100 | COCCc1ccc(Cn2cc(C(=O)NCc3ccc(C(=N)N)c(F)c3)cn2)cc1 [Example 73, N-(4-carbamimidoyl-3-fluorobenzyl)-1-(4-(2-methoxyethyl)benzyl)-1H-pyrazole-4-carboxamide]
10 to 100 | 100 to 1000 | N#CCc1ccc(Cn2ncc(C(=O)NCc3ccc(C(=N)N)cc3)c2C2CC2)cc1 [Example 86, N-(4-carbamimidoylbenzyl)-1-(4-(cyanomethyl)benzyl)-5-cyclopropyl-1H-pyrazole-4-carboxamide]
1 to 10 | – | CC(C#N)c1ccc(Cn2cc(C(=O)NCc3ccc(C(=N)N)cc3)cn2)cc1 (stereo not drawn) [Example 5, N-(4-carbamimidoylbenzyl)-1-(4-(1-cyanoethyl)benzyl)-1H-pyrazole-4-carboxamide]
< 1 | < 100 | COCc1ccc(Cn2cc(C(=O)NCc3ccc(C(=N)N)cc3)cn2)cc1 [Example 71, N-(4-carbamimidoylbenzyl)-1-(4-(methoxymethyl)benzyl)-1H-pyrazole-4-carboxamide]
1 to 10 | < 100 | COCCc1cccc(Cn2cc(C(=O)NCc3ccc(C(=N)N)cc3)cn2)c1 [Example 69, N-(4-carbamimidoylbenzyl)-1-(3-(2-methoxyethyl)benzyl)-1H-pyrazole-4-carboxamide]
10 to 100 | 100 to 1000 | N#CCc1ccc(Cn2cc(C(=O)NCc3ccc(C(=N)N)c(F)c3)cn2)cc1 [Example 72, N-(4-carbamimidoyl-3-fluorobenzyl)-1-(4-(cyanomethyl)benzyl)-1H-pyrazole-4-carboxamide]
< 1 | < 100 | N#Cc1ccn(-c2ccc(Cn3cc(C(=O)NCc4ccc(C(=N)N)cc4)cn3)cc2)c1 [Example 25, N-(4-carbamimidoylbenzyl)-1-(4-(3-cyano-1H-pyrrol-1-yl)benzyl)-1H-pyrazole-4-carboxamide]
10 to 100 | 100 to 1000 | N#CCc1ccccc1Cn1cc(C(=O)NCc2ccc(C(=N)N)cc2)cn1 [Example 70, N-(4-carbamimidoylbenzyl)-1-(2-(cyanomethyl)benzyl)-1H-pyrazole-4-carboxamide]
1 to 10 | 100 to 1000 | CNC(=O)Cc1ccc(Cn2cc(C(=O)NCc3ccc(C(=N)N)c(F)c3)cn2)cc1 [Example 74, N-(4-carbamimidoyl-3-fluorobenzyl)-1-(4-(2-(methylamino)-2-oxoethyl)benzyl)-1H-pyrazole-4-carboxamide]
> 100 | > 1000 | COCc1c(C(=O)NCc2ccc(C(=N)N)c(F)c2)cnn1Cc1ccc(CC#N)cc1 [Example 75, N-(4-carbamimidoyl-3-fluorobenzyl)-1-(4-(cyanomethyl)benzyl)-5-(methoxymethyl)-1H-pyrazole-4-carboxamide]
1 to 10 | < 100 | N=C(N)c1ccc(CNC(=O)c2cnn(Cc3ccc(CO)cc3)c2)cc1 [Example 2, N-(4-carbamimidoylbenzyl)-1-(4-(hydroxymethyl)benzyl)-1H-pyrazole-4-carboxamide]
> 100 | > 1000 | CC(C)(C#N)c1ccc(Cn2cc(C(=O)NCc3cc(F)c(C(=N)N)c(F)c3)cn2)cc1 [Example 44, N-(4-carbamimidoyl-3,5-difluorobenzyl)-1-(4-(2-cyanopropan-2-yl)benzyl)-1H-pyrazole-4-carboxamide]
< 1 | < 100 | Cc1c(C(=O)NCc2ccc(C(=N)N)cc2)cnn1Cc1ccc(C(C)(C)C#N)cc1 [Example 81, N-(4-carbamimidoylbenzyl)-1-(4-(2-cyanopropan-2-yl)benzyl)-5-methyl-1H-pyrazole-4-carboxamide]
1 to 10 | – | N#CCc1ccc(Cc2cc(C(=O)NCc3ccc(C(=N)N)cc3)on2)cc1 [Example 10, N-(4-carbamimidoylbenzyl)-3-(4-(cyanomethyl)benzyl) isoxazole-5-carboxamide]
> 100 | > 1000 | CCCc1c(C(=O)NCc2ccc(C(=N)N)cc2)ncn1Cc1ccc(C(C)(C)C#N)cc1 [Example 84, N-(4-carbamimidoylbenzyl)-1-(4-(2-cyanopropan-2-yl)benzyl)-5-propyl-1H-imidazole-4-carboxamide]
< 1 | 100 to 1000 | N#Cc1ccc(Cc2ccc(Cn3cc(C(=O)NCc4ccc(C(=N)N)cc4)cn3)cc2)cc1 [Example 14, N-(4-carbamimidoylbenzyl)-1-(4-(4-cyanobenzyl)benzyl)-1H-pyrazole-4-carboxamide]
10 to 100 | 100 to 1000 | COCc1c(C(=O)NCc2ccc(C(=N)N)cc2)cnn1Cc1ccc(CC#N)cc1 [Example 85, N-(4-carbamimidoylbenzyl)-1-(4-(cyanomethyl)benzyl)-5-(methoxymethyl)-1H-pyrazole-4-carboxamide]

— patent US20260327193A1, “INHIBITORS OF PLASMA KALLIKREIN” (Rezolute, Inc., priority 2022, published 2026)
